Values of other authors as cited in US9293280B2, “Mixture of hydrofluoroolefine and hydrofluorocarbide to improve the internal ARC resistance in medium and high voltage electric apparatus” (priority 2012, dated 2016).

How the values were obtained:
human = settings: average limiting content, 8 hours of work for 5 days per week without harmful effect
animal population = settings: causing the death of 50% of an animal population

| SMILES | average exposure value AEV (human) | lethal dose LD50 (animal population) |
| --- | --- | --- |
| F/C=C/C(F)(F)F [HFO-1234ze, trans-1,3,3,3-tetrafluoro-1-propene] | 1000 ppm | > 200 000 ppm |
| O=C(C(F)(F)F)C(F)(C(F)(F)F)C(F)(F)F [C5K, decafluoro-2-methylbutan-3-one] | 1000 ppm | greater than 200 000 ppm |
